Laboratory results taken from article PMC3633653 (Molecular microbiology, 2013).

Biological target: T1, EI^Ntr (Escherichia coli, UniProt P37177)
T1 sequence (P37177 1-748): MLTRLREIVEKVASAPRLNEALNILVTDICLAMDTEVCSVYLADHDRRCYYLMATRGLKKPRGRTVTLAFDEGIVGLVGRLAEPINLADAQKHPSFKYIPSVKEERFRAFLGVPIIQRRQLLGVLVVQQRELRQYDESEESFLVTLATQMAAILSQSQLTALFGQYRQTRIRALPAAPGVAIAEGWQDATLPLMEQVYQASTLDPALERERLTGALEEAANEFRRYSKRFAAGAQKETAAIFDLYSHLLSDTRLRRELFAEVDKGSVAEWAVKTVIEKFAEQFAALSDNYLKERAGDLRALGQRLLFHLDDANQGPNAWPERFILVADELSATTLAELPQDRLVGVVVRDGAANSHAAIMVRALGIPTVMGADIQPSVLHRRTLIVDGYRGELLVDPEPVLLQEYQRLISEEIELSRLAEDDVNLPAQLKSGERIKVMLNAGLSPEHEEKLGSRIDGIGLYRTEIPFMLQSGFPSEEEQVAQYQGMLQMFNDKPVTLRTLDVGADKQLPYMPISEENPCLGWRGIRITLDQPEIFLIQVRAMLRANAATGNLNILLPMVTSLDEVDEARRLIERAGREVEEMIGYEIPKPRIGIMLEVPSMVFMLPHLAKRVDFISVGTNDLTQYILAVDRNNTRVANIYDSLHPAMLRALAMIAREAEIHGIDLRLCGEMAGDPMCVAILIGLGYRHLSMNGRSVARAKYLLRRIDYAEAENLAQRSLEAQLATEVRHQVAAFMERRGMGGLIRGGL
Assay: intrinsic tryptophan fluorescence quenching
Format: binding

## NC(=O)CC[C@H](N)C(=O)O [glutamine]
  Kd: 700 µM

## O=C(O)CCC(=O)C(=O)O [α-ketoglutarate]
  Kd: 3300 µM
